Columns and labels:
Test in all cases: Kinase profiling
Assay type in all cases: biochemical
ACK1 = biological target: T1, ACK1 (Homo sapiens, UniProt Q07912)
T1 construct: purchased ProQinase (Freiburg, Germany)
Procedure: (§1) The analysis was performed by ProQinase (Freiburg, Germany).

AKT2 = biological target: T2, AKT2 (Homo sapiens, UniProt P31751)
T2 construct: purchased ProQinase (Freiburg, Germany)
Procedure: as §1

CAMK2B = biological target: T3, CAMK2B (Homo sapiens, UniProt Q13554)
T3 construct: purchased ProQinase (Freiburg, Germany)
Procedure: as §1

CDK9/CycK = biological target: T4, CDK9/CycK (Homo sapiens, UniProt P50750)
T4 construct: purchased ProQinase (Freiburg, Germany)
Procedure: as §1

CK1gamma2 = biological target: T5, CK1gamma2 (Homo sapiens, UniProt P78368)
T5 construct: purchased ProQinase (Freiburg, Germany)
Procedure: as §1

DAPK1 = biological target: T6, DAPK1 (Homo sapiens, UniProt P53355)
T6 construct: purchased ProQinase (Freiburg, Germany)
Procedure: as §1

DAPK3 = biological target: T7, DAPK3 (Homo sapiens, UniProt O43293)
T7 construct: purchased ProQinase (Freiburg, Germany)
Procedure: as §1

EPHA5 = biological target: T8, EPHA5 (Homo sapiens, UniProt P54756)
T8 construct: purchased ProQinase (Freiburg, Germany)
Procedure: as §1

HIPK1 = biological target: T9, HIPK1 (Homo sapiens, UniProt Q86Z02)
T9 construct: purchased ProQinase (Freiburg, Germany)
Procedure: as §1

LTK = biological target: T10, LTK (Homo sapiens, UniProt P29376)
T10 construct: purchased ProQinase (Freiburg, Germany)
Procedure: as §1

MARK3 = biological target: T11, MARK3 (Homo sapiens, UniProt P27448)
T11 construct: purchased ProQinase (Freiburg, Germany)
Procedure: as §1

MET = biological target: T12, MET (Homo sapiens, UniProt P08581)
T12 construct: purchased ProQinase (Freiburg, Germany)
Procedure: as §1

MKNK2 = biological target: T13, MKNK2 (Homo sapiens, UniProt Q9HBH9)
T13 construct: purchased ProQinase (Freiburg, Germany)
Procedure: as §1

NEK11 = biological target: T14, NEK11 (Homo sapiens, UniProt Q8NG66)
T14 construct: purchased ProQinase (Freiburg, Germany)
T14 sequence (Q8NG66 1-645): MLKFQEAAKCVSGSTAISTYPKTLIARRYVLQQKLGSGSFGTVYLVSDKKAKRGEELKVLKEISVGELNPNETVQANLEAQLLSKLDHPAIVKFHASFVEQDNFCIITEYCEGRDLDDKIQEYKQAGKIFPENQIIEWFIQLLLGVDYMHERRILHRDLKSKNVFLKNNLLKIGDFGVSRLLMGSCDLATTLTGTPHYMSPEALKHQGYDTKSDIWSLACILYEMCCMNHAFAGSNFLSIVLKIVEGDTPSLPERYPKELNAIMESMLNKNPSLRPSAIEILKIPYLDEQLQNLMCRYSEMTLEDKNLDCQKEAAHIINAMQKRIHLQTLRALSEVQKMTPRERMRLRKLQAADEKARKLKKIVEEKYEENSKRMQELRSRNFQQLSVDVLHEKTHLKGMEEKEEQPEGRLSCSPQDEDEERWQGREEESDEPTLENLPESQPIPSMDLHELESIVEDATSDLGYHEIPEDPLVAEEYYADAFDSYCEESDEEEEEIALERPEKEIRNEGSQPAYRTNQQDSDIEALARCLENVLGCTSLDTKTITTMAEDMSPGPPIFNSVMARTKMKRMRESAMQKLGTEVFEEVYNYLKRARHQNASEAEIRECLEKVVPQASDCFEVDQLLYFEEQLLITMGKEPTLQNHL
Procedure: as §1

NIK = biological target: T15, NIK (Homo sapiens, UniProt Q99558)
T15 construct: purchased ProQinase (Freiburg, Germany)
Procedure: as §1

PKCzeta = biological target: T16, PKCzeta (Homo sapiens, UniProt Q05513)
T16 construct: purchased ProQinase (Freiburg, Germany)
T16 sequence (Q05513 1-592): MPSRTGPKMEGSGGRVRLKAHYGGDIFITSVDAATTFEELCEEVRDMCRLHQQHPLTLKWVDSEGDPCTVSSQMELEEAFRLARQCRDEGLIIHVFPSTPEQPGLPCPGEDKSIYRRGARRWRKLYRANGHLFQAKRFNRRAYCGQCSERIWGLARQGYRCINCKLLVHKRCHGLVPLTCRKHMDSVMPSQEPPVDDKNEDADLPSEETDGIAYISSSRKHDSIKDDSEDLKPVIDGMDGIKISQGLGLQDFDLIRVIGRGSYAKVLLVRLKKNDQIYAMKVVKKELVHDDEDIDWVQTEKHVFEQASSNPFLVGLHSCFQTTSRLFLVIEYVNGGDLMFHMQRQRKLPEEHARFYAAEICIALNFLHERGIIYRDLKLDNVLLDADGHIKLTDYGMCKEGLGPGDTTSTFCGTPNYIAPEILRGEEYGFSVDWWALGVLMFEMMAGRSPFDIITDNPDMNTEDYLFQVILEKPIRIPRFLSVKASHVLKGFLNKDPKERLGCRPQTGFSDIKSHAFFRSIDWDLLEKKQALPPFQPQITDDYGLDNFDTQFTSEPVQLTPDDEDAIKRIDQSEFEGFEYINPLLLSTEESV
Procedure: as §1

ROCK2 = biological target: T17, ROCK2 (Homo sapiens, UniProt O75116)
T17 construct: purchased ProQinase (Freiburg, Germany)
Procedure: as §1

RPS6KA4 = biological target: T18, RPS6KA4 (Homo sapiens, UniProt O75676)
T18 construct: purchased ProQinase (Freiburg, Germany)
Procedure: as §1

S6Kbeta = biological target: T19, S6Kbeta (Homo sapiens, UniProt Q9UBS0)
T19 construct: purchased ProQinase (Freiburg, Germany)
Procedure: as §1

TTBK1 = biological target: T20, TTBK1 (Homo sapiens, UniProt Q5TCY1)
T20 construct: purchased ProQinase (Freiburg, Germany)
Procedure: as §1

VEGFR3 = biological target: T21, VEGFR3 (Homo sapiens, UniProt P35916)
T21 construct: purchased ProQinase (Freiburg, Germany)
Procedure: as §1

YES = biological target: T22, YES (Homo sapiens, UniProt P07947)
T22 construct: purchased ProQinase (Freiburg, Germany)
Procedure: as §1

T5 sequence (P78368 whole entry): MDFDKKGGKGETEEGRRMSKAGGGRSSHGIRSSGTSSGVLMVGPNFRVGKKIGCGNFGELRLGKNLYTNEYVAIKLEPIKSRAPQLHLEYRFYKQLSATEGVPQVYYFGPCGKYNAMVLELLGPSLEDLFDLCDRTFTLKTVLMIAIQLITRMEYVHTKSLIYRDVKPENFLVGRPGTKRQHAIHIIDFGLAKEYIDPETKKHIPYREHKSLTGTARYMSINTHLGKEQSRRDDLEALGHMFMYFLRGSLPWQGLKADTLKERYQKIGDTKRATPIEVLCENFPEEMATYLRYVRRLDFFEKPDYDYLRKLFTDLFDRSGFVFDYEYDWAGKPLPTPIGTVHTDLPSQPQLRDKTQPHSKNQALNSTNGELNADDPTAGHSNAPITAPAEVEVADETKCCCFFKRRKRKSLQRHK
T7 sequence (O43293 whole entry): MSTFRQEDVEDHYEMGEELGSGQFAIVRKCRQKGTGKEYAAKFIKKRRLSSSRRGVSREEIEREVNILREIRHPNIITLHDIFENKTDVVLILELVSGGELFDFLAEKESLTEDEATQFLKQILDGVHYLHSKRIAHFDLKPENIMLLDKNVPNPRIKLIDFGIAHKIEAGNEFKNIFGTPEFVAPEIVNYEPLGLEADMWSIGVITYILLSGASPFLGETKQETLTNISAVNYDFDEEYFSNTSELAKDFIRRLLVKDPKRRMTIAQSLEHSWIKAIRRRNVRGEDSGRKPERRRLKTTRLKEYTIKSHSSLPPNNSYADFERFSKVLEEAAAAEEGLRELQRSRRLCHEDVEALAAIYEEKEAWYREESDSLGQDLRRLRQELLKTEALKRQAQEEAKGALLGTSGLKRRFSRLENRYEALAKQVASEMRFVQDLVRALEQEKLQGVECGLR
T11 sequence (P27448 whole entry): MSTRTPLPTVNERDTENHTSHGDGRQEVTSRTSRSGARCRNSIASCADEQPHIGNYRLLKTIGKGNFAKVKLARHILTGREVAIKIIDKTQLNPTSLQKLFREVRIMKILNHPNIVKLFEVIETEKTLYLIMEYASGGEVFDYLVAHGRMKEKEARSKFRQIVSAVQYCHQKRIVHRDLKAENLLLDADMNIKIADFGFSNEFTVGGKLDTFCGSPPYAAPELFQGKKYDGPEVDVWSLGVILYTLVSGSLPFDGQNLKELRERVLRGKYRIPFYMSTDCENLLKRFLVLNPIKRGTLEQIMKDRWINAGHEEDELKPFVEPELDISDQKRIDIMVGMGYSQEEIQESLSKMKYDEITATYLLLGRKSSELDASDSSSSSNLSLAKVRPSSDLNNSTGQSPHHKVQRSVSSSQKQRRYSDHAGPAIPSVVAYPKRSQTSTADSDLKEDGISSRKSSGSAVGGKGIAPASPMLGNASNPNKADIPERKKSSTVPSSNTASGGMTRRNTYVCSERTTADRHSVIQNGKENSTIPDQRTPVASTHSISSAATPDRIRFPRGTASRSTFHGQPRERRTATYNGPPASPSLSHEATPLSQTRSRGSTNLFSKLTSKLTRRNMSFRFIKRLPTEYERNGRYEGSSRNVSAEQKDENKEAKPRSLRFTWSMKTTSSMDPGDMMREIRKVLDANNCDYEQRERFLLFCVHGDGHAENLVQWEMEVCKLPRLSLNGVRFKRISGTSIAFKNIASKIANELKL
T15 sequence (Q99558 whole entry): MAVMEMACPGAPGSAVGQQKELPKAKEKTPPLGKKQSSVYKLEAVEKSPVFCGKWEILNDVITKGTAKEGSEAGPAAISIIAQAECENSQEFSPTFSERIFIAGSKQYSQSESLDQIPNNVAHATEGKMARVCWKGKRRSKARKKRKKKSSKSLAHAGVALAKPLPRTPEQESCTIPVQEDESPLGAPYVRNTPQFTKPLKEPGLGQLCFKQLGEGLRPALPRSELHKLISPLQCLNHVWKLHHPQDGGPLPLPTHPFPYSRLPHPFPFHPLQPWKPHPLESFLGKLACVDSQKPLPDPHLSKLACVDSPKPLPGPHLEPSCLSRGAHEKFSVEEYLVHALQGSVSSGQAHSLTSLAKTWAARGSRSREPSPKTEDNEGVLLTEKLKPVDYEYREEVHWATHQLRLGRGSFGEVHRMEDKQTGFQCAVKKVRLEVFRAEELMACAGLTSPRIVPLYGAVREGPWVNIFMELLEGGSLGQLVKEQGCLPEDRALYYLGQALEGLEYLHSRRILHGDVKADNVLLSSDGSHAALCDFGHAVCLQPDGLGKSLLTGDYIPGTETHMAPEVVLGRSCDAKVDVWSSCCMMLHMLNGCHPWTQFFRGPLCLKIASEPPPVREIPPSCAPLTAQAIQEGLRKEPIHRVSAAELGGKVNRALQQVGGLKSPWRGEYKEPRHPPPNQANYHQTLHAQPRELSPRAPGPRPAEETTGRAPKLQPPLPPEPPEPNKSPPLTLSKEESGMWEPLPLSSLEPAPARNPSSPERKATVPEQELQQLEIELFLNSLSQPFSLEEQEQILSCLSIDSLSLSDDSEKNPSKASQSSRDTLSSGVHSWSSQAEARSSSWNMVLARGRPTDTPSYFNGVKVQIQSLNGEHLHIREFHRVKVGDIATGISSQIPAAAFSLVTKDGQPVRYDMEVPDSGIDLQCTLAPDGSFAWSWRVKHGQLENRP
T20 sequence (Q5TCY1 whole entry): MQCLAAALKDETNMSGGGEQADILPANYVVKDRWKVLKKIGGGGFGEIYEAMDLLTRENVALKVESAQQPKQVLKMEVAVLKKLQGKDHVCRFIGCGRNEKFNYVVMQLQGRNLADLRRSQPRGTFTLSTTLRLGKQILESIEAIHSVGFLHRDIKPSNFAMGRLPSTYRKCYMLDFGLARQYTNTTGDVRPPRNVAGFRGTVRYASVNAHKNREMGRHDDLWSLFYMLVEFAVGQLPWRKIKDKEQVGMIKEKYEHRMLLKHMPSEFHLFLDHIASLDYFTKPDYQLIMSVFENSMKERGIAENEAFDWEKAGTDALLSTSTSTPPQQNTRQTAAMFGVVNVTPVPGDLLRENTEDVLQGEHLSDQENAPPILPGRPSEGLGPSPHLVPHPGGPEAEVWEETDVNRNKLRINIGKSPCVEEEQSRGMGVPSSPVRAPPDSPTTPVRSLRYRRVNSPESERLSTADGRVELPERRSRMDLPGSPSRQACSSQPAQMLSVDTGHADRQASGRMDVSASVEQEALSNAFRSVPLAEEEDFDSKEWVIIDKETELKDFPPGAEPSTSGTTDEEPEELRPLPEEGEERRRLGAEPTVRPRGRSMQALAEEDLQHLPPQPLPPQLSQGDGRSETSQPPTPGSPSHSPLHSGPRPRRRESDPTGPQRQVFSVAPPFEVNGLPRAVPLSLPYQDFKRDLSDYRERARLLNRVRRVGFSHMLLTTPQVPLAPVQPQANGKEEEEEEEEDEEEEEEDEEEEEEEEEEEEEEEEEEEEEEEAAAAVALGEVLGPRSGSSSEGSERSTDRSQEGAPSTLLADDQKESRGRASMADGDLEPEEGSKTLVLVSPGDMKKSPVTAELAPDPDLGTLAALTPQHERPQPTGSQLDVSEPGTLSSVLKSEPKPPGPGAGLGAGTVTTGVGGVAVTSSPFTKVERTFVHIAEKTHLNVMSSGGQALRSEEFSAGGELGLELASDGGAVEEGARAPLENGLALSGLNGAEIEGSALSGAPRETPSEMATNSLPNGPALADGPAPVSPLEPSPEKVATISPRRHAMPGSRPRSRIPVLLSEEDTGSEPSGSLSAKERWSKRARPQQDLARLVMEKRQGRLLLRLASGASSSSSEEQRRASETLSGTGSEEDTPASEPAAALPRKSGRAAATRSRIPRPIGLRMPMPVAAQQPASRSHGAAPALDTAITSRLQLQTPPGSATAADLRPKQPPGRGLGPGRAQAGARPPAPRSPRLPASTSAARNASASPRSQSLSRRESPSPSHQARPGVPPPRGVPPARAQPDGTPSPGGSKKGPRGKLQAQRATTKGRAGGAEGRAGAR
T19 sequence (Q9UBS0 whole entry): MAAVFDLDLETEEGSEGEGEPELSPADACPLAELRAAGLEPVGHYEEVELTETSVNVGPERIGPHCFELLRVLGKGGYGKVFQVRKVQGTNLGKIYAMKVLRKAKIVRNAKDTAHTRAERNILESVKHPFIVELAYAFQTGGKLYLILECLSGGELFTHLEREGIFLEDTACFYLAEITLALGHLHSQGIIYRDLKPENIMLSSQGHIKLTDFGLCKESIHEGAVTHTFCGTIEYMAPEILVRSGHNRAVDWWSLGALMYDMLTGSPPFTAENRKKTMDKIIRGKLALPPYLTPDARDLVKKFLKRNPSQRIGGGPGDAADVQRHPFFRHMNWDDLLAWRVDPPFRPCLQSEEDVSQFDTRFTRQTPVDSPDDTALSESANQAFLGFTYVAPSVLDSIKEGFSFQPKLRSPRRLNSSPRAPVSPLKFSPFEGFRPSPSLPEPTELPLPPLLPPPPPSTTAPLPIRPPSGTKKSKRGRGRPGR
T22 sequence (P07947 whole entry): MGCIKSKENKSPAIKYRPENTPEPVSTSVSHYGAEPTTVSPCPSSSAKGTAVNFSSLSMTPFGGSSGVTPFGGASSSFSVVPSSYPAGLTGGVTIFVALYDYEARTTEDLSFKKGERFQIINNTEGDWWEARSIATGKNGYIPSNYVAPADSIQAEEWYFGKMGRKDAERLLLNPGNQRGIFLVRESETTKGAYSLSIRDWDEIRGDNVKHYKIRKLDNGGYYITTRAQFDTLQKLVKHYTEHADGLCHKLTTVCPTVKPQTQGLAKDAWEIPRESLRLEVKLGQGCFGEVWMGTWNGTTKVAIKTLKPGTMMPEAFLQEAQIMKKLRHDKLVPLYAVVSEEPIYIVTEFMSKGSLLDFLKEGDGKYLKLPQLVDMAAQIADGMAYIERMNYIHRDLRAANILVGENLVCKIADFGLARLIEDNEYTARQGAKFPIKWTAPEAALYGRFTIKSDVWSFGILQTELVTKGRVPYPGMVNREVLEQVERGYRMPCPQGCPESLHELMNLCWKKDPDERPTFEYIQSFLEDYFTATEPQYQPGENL

O=C(Nc1ccc(F)c(Nc2ccc3c(c2)CCCCC3=O)c1)c1cccc(F)c1 [Compound 109]
Residual activity (ACK1; 1.0E-05 M): 89 % of control
Residual activity (ACK1; 1.0E-06 M): 96 % of control
Residual activity (AKT2; 1.0E-05 M): 92 % of control
Residual activity (AKT2; 1.0E-06 M): 92 % of control
Residual activity (CAMK2B; 1.0E-05 M): 104 % of control
Residual activity (CAMK2B; 1.0E-06 M): 132 % of control
Residual activity (CDK9/CycK; 1.0E-05 M): 95 % of control
Residual activity (CDK9/CycK; 1.0E-06 M): 90 % of control
Residual activity (CK1gamma2; 1.0E-05 M): 70 % of control
Residual activity (CK1gamma2; 1.0E-06 M): 84 % of control
Residual activity (DAPK1; 1.0E-05 M): 102 % of control
Residual activity (DAPK1; 1.0E-06 M): 109 % of control
Residual activity (DAPK3; 1.0E-05 M): 107 % of control
Residual activity (DAPK3; 1.0E-06 M): 108 % of control
Residual activity (EPHA5; 1.0E-05 M): 60 % of control
Residual activity (EPHA5; 1.0E-06 M): 93 % of control
Residual activity (HIPK1; 1.0E-05 M): 93 % of control
Residual activity (HIPK1; 1.0E-06 M): 90 % of control
Residual activity (LTK; 1.0E-05 M): 77 % of control
Residual activity (LTK; 1.0E-06 M): 95 % of control
Residual activity (MARK3; 1.0E-05 M): 105 % of control
Residual activity (MARK3; 1.0E-06 M): 102 % of control
Residual activity (MET; 1.0E-05 M): 91 % of control
Residual activity (MET; 1.0E-06 M): 95 % of control
Residual activity (MKNK2; 1.0E-05 M): 107 % of control
Residual activity (MKNK2; 1.0E-06 M): 104 % of control
Residual activity (NEK11; 1.0E-05 M): 104 % of control
Residual activity (NEK11; 1.0E-06 M): 86 % of control
Residual activity (NIK; 1.0E-05 M): 103 % of control
Residual activity (NIK; 1.0E-06 M): 103 % of control
Residual activity (PKCzeta; 1.0E-05 M): 96 % of control
Residual activity (PKCzeta; 1.0E-06 M): 87 % of control
Residual activity (ROCK2; 1.0E-05 M): 98 % of control
Residual activity (ROCK2; 1.0E-06 M): 103 % of control
Residual activity (RPS6KA4; 1.0E-05 M): 95 % of control
Residual activity (RPS6KA4; 1.0E-06 M): 95 % of control
Residual activity (S6Kbeta; 1.0E-05 M): 96 % of control
Residual activity (S6Kbeta; 1.0E-06 M): 102 % of control
Residual activity (TTBK1; 1.0E-05 M): 115 % of control
Residual activity (TTBK1; 1.0E-06 M): 101 % of control
Residual activity (VEGFR3; 1.0E-05 M): 88 % of control
Residual activity (VEGFR3; 1.0E-06 M): 105 % of control
Residual activity (YES; 1.0E-05 M): 77 % of control
Residual activity (YES; 1.0E-06 M): 98 % of control

O=C(Cc1ccccc1)Nc1ccc(F)c(Nc2ccc3c(c2)CCCCC3=O)c1 [Compound 100]
Residual activity (ACK1; 1.0E-05 M): 92 % of control
Residual activity (ACK1; 1.0E-06 M): 112 % of control
Residual activity (AKT2; 1.0E-05 M): 82 % of control
Residual activity (AKT2; 1.0E-06 M): 92 % of control
Residual activity (CAMK2B; 1.0E-05 M): 115 % of control
Residual activity (CAMK2B; 1.0E-06 M): 144 % of control
Residual activity (CDK9/CycK; 1.0E-05 M): 89 % of control
Residual activity (CDK9/CycK; 1.0E-06 M): 91 % of control
Residual activity (CK1gamma2; 1.0E-05 M): 114 % of control
Residual activity (CK1gamma2; 1.0E-06 M): 104 % of control
Residual activity (DAPK1; 1.0E-05 M): 110 % of control
Residual activity (DAPK1; 1.0E-06 M): 127 % of control
Residual activity (DAPK3; 1.0E-05 M): 119 % of control
Residual activity (DAPK3; 1.0E-06 M): 105 % of control
Residual activity (EPHA5; 1.0E-05 M): 67 % of control
Residual activity (EPHA5; 1.0E-06 M): 96 % of control
Residual activity (HIPK1; 1.0E-05 M): 91 % of control
Residual activity (HIPK1; 1.0E-06 M): 100 % of control
Residual activity (LTK; 1.0E-05 M): 50 % of control
Residual activity (LTK; 1.0E-06 M): 115 % of control
Residual activity (MARK3; 1.0E-05 M): 103 % of control
Residual activity (MARK3; 1.0E-06 M): 106 % of control
Residual activity (MET; 1.0E-05 M): 89 % of control
Residual activity (MET; 1.0E-06 M): 101 % of control
Residual activity (MKNK2; 1.0E-05 M): 115 % of control
Residual activity (MKNK2; 1.0E-06 M): 112 % of control
Residual activity (NEK11; 1.0E-05 M): 110 % of control
Residual activity (NEK11; 1.0E-06 M): 97 % of control
Residual activity (NIK; 1.0E-05 M): 103 % of control
Residual activity (NIK; 1.0E-06 M): 93 % of control
Residual activity (PKCzeta; 1.0E-05 M): 102 % of control
Residual activity (PKCzeta; 1.0E-06 M): 92 % of control
Residual activity (ROCK2; 1.0E-05 M): 102 % of control
Residual activity (ROCK2; 1.0E-06 M): 101 % of control
Residual activity (RPS6KA4; 1.0E-05 M): 93 % of control
Residual activity (RPS6KA4; 1.0E-06 M): 93 % of control
Residual activity (S6Kbeta; 1.0E-05 M): 85 % of control
Residual activity (S6Kbeta; 1.0E-06 M): 96 % of control
Residual activity (TTBK1; 1.0E-05 M): 126 % of control
Residual activity (TTBK1; 1.0E-06 M): 108 % of control
Residual activity (VEGFR3; 1.0E-05 M): 84 % of control
Residual activity (VEGFR3; 1.0E-06 M): 108 % of control
Residual activity (YES; 1.0E-05 M): 70 % of control
Residual activity (YES; 1.0E-06 M): 87 % of control

Reference: publication PMC9030254, “Target Hopping from Protein Kinases to PXR: Identification of Small-Molecule Protein Kinase Inhibitors as Selective Modulators of Pregnane X Receptor from TüKIC Library” (Cells, 2022)
